{"source": "patent US20070066606A1", "about": "“Benzylbenzimidazolyl derivatives” (priority 2003, published 2007)", "target": "TIE-2 (Homo sapiens, UniProt Q02763)", "sequence (Q02763 23-1124, species assumed)": "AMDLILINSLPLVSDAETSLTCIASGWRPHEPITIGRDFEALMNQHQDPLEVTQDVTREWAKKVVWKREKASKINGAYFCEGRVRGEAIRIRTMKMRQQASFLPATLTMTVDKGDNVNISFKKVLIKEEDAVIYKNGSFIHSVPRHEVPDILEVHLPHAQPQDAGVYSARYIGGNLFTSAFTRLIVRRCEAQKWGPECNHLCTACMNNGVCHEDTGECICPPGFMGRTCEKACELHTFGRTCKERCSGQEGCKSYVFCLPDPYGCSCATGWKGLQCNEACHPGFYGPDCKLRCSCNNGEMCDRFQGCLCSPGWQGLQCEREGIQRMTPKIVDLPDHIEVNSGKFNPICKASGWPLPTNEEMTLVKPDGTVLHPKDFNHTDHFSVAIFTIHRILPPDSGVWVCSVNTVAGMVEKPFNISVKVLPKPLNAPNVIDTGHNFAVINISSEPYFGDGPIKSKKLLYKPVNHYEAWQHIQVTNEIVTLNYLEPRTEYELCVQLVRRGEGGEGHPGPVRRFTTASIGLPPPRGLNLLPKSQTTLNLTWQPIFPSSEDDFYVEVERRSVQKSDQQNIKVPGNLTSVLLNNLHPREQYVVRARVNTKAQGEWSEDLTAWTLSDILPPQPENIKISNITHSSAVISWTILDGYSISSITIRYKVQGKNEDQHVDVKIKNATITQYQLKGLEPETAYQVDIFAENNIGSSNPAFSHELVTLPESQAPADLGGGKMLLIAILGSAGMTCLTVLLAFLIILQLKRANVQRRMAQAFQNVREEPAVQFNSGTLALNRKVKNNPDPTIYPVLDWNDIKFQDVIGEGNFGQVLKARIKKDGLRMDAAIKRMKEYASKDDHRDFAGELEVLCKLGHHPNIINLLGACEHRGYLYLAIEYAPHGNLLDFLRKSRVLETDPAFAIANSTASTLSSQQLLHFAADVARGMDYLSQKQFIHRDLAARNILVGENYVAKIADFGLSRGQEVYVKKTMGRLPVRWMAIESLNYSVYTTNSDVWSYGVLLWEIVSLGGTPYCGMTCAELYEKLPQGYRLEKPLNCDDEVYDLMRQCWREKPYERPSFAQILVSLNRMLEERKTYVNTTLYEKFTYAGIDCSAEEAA", "assay": "TIE-2 kinase flashplate assay (phosphorylation of poly(Glu, Tyr) with 33P-ATP)", "assay_type": "biochemical", "conditions": "read-out: Inhibition of TIE-2 IC50", "procedure": "The TIE-2 tests can be carried out, for example, analogously to the methods indicated in WO 02/44156.\nThe assay determines the inhibiting activity of the substances to be tested in the phosphorylation of the substrate poly(Glu, Tyr) by Tie-2 kinase in the presence of radioactive ^33P-ATP. The phosphorylated substrate binds to the surface of a “flashplate” microtitre plate during the incubation time. After removal of the reaction mixture, the microtitre plate is washed a number of times and the radioactivity on its surface is subsequently measured. An inhibiting effect of the substances to be measured results in lower radioactivity compared with an undisturbed enzymatic reaction.", "data": [{"smiles": "Nc1nc2cc(Br)ccc2n1Cc1ccc(NS(=O)(=O)c2cccc(Cl)c2Cl)cc1", "note": "[N-[4-(2-amino-5-bromo-benzimidazol-1-ylmethyl)-phenyl]-2,3-dichloro-benzenesulfonamide]", "values": [{"measurement": "IC50", "value": 2780, "unit": "nM"}]}, {"smiles": "Nc1nc2cc(CCCO)ccc2n1Cc1ccc(NS(=O)(=O)c2cccc(Cl)c2Cl)cc1", "note": "[N-{4-[2-amino-5-(3-hydroxy-propyl)benzimidazol-1-yl-methyl]phenyl}-2,3-dichloro-benzenesulfonamide]", "values": [{"measurement": "IC50", "value": 320, "unit": "nM"}]}]}
